# In patent US20260184710A1, “CASITAS B-LINEAGE LYMPHOMA PROTOONCOGENE B (CBL-B) DEGRADING COMPOUNDS AND ASSOCIATED METHODS OF USE” (Arvinas Operations, Inc., priority 2022, published 2026):
# Tests used:
# Cbl-b [1] = molecular target: T1, Cbl-b (Homo sapiens, UniProt Q13191); experiment: Cbl-b Degradation Method B (Nano-Glo HiBiT lytic detection); format: cell-based; details: Cbl-b-HiBit KI Jurkat Cells, incubated at least 6-24 hours; for Cbl-b Degredation Method B Dmax (%) / Dmax: maximum degradation observed; for Dmax: read-out: Cbl-b Degredation Method B Dmax (%)
# T1 construct: Cbl-b-HiBit KI Jurkat Cells were purchased from Promega; host or cells: Cbl-b-HiBiT knock-in Jurkat cells
# T1 sequence (Q13191 whole entry): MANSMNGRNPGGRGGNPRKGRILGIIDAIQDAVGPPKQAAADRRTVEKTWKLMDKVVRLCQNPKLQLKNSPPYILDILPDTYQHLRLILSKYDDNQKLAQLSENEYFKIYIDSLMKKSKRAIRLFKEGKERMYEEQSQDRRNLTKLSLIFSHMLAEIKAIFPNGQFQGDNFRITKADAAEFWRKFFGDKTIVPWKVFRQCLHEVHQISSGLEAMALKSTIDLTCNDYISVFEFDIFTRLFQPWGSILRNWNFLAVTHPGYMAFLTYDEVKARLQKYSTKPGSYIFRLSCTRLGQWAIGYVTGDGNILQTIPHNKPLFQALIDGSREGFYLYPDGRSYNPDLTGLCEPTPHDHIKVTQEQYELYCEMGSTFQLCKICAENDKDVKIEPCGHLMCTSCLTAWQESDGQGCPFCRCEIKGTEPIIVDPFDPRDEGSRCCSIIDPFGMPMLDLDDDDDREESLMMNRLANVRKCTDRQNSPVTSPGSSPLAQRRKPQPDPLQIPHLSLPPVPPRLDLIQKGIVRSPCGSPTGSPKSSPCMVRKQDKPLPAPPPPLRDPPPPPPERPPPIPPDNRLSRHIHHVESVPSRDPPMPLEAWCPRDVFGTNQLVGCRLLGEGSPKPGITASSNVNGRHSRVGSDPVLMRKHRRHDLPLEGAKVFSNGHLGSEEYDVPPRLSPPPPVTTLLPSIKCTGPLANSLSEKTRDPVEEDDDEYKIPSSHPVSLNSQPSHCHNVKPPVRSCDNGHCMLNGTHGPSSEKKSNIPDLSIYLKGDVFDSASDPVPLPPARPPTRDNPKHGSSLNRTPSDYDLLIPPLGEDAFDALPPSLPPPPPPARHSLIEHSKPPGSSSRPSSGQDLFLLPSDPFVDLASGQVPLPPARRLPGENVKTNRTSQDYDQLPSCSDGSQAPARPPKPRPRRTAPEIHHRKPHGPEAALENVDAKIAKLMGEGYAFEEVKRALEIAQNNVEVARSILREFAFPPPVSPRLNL
# In short: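 An 11-point, 3-fold compound dilution was applied for 6-24 hours to Jurkat cells carrying HiBiT-tagged endogenous Cbl-b. Lytic HiBiT luminescence quantified residual protein. Outputs are DC50 and Dmax relative to DMSO control.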
# Cbl-b [2] = molecular target: T1, Cbl-b; experiment: Cbl-b Degradation Method A (FACS, anti-Cbl-b antibody staining); format: cell-based; details: Cbl-b-HiBit KI Jurkat Cells, incubated at least 20 hours; for Dmax: Jurkat, read-out: Cbl-b Degredation Method A Dmax (%)
# In short: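 Readout is flow cytometry of fixed, permeabilized cells immunostained for Cbl-b (primary 1:200, AF488 secondary). Cells were Cbl-b-HiBit knock-in Jurkat, exposed to compound ≥20 h at 37 °C; half-maximal degradation concentration (DC50) and maximal degradation (Dmax) calculated relative to control.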
# [3] = half maximal degradation, read-out: Cbl-b Degredation Method B IC50
# [4] = half maximal degradation, read-out: Cbl-b Degredation Method A IC50
SMILES,DC50 (Cbl-b [1]; [3]) [nM],DC50 (Cbl-b [2]; [4]) [nM],IC50 (Cbl-b [1]; [3]) [nM],Cbl-b Degredation Method B Dmax (%) (Cbl-b [1]),IC50 (Cbl-b [2]; [4]) [nM],Cbl-b Degredation Method A Dmax (%) (Cbl-b [2]; maximum degradation observed),Dmax (Cbl-b [1]) [%],Dmax (Cbl-b [2]; maximum degradation observed) [%]
"CC1c2nc(N3CCC(O[C@H]4CC[C@H](CN5CCN(Cc6cc7c(c(C(F)(F)F)c6)CN(c6cccc(C8(Cc9nncn9C)COC8)c6)C7=O)CC5(C)C)CC4)CC3)ccc2C(=O)N1C1CCC(=O)NC1=O (mixture of isomers) [Example 236, rac-3-[7-methyl-5-oxo-2-(4-{[(1r,4r)-4-[(2,2-dimethyl-4-{[2-(3-{3-[(4-methyl-4H-1,2,4-triazol-3-yl)methyl]oxetan-3-yl}phenyl)-3-oxo-7-(trifluoromethyl)-2,3-dihydro-1H-isoindol-5-yl]methyl}piperazin-1-yl)methyl]cyclohexyl]oxy}piperidin-1-yl)-5H,6H,7H-pyrrolo[3,4-b]pyridin-6-yl]piperidine-2,6-dione]",< 5,< 5,–,–,–,–,> 70,> 70
"Cn1cnnc1CC1(c2cccc(N3Cc4c(cc(CN5CCC(CN6CCC(COc7ccc8c(c7)C(=O)N(C7CCC(=O)NC7=O)C8=O)CC6)CC5)cc4C(F)(F)F)C3=O)c2)COC1 (centres unmarked) [Example 84, 2-(2,6-dioxopiperidin-3-yl)-5-({1-[(1-{[2-(3-{3-[(4-methyl-4H-1,2,4-triazol-3-yl)methyl]oxetan-3-yl}phenyl)-3-oxo-7-(trifluoromethyl)-2,3-dihydro-1H-isoindol-5-yl]methyl}piperidin-4-yl)methyl]piperidin-4-yl}methoxy)-2,3-dihydro-1H-isoindole-1,3-dione]",> 500,> 500,–,–,–,–,–,–
"Cn1cnnc1CC1(c2cccc(N3Cc4c(cc(CN5CCC[C@H](CN6CCC(CN7CCN(c8ccc9c(c8)C(=O)N(C8CCC(=O)NC8=O)C9=O)CC7)CC6)C5)cc4C(F)(F)F)C3=O)c2)COC1 (stereo partly drawn) [Example 101, 2-(2,6-dioxopiperidin-3-yl)-5-{4-[(1-{[(3R)-1-{[2-(3-{3-[(4-methyl-4H-1,2,4-triazol-3-yl)methyl]oxetan-3-yl}phenyl)-3-oxo-7-(trifluoromethyl)-2,3-dihydro-1H-isoindol-5-yl]methyl}piperidin-3-yl]methyl}piperidin-4-yl)methyl]piperazin-1-yl}-2,3-dihydro-1H-isoindole-1,3-dione]",> 500,> 500,–,–,–,–,–,–
"C[C@@H]1c2nc(N3CCC(O[C@H]4CC[C@H](CN5CCN(Cc6cc7c(c(C(F)(F)F)c6)CN(c6cccc(C8(Cc9nncn9C)CC(C#N)C8)c6)C7=O)C(C)(C)C5)CC4)CC3)ccc2C(=O)N1C1CCC(=O)NC1=O (single isomer, unassigned) [Example 306, (1r***,3r***)-3-(3-{6-[(2,2-dimethyl-4-{[(1r**,4r**)-4-({1-[(7R*)-6-(2,6-dioxopiperidin-3-yl)-7-methyl-5-oxo-5H,6H,7H-pyrrolo[3,4-b]pyridin-2-yl]piperidin-4-yl}oxy)cyclohexyl]methyl}piperazin-1-yl)methyl]-1-oxo-4-(trifluoromethyl)-2,3-dihydro-1H-isoindol-2-yl}phenyl)-3-[(4-methyl-4H-1,2,4-triazol-3-yl)methyl]cyclobutane-1-carbonitrile]",< 5,50 to 500,–,C (C ≤ 35),–,–,–,35 to 70
"Cc1cc(N2CCC(O[C@H]3CC[C@H](CN4CCN(Cc5cc6c(c(C(F)(F)F)c5)CN(c5cccc([C@]7(Cc8nncn8C)C[C@H](C#N)C7)c5)C6=O)[C@@H](C)C4)CC3)CC2)c(F)c2c1C(=O)N(C1CCC(=O)NC1=O)C2 (stereo partly drawn) [Example 220, (1r,3r)-3-[3-(6-{[(2S)-2-methyl-4-{[(1r,4r)-4-({1-[2-(2,6-dioxopiperidin-3-yl)-4-fluoro-7-methyl-1-oxo-2,3-dihydro-1H-isoindol-5-yl]piperidin-4-yl}oxy)cyclohexyl]methyl}piperazin-1-yl]methyl}-1-oxo-4-(trifluoromethyl)-2,3-dihydro-1H-isoindol-2-yl)phenyl]-3-[(4-methyl-4H-1,2,4-triazol-3-yl)methyl]cyclobutane-1-carbonitrile]",< 5,5 to 50,–,–,–,–,> 70,> 70
"CC(C)n1c(=O)n(C2CCC(=O)NC2=O)c2cccc(N3CCC(O[C@H]4CC[C@H](CN5CCC6(CC5)CN(Cc5cc7c(c(C(F)(F)F)c5)CN(c5cccc([C@]8(Cc9nncn9C)C[C@@H](C#N)C8)c5)C7=O)C6)CC4)CC3)c21 (some centres unmarked) [Example 320, (1r,3r)-3-[(4-methyl-4H-1,2,4-triazol-3-yl)methyl]-3-(3-{1-oxo-6-[(7-{[(1r,4r)-4-({1-[1-(2,6-dioxopiperidin-3-yl)-2-oxo-3-(propan-2-yl)-2,3-dihydro-1H-1,3-benzodiazol-4-yl]piperidin-4-yl}oxy)cyclohexyl]methyl}-2,7-diazaspiro[3.5]nonan-2-yl)methyl]-4-(trifluoromethyl)-2,3-dihydro-1H-isoindol-2-yl}phenyl)cyclobutane-1-carbonitrile]",< 5,50 to 500,–,C (C ≤ 35),–,–,–,> 70
"CC1CN(C[C@H]2CC[C@H](OC3CCN(c4ccc5c(n4)C(C)N(C4CCC(=O)NC4=O)C5=O)CC3)CC2)CCN1Cc1cc2c(c(C(F)(F)F)c1)CN(c1cccc(C3(Cc4nncn4C)CC3)c1)C2=O (some centres unmarked) [Example 212, 3-[7-methyl-5-oxo-2-(4-{[(1r,4r)-4-[(3-methyl-4-{[2-(3-{1-[(4-methyl-4H-1,2,4-triazol-3-yl)methyl]cyclopropyl}phenyl)-3-oxo-7-(trifluoromethyl)-2,3-dihydro-1H-isoindol-5-yl]methyl}piperazin-1-yl)methyl]cyclohexyl]oxy}piperidin-1-yl)-5H,6H,7H-pyrrolo[3,4-b]pyridin-6-yl]piperidine-2,6-dione]",< 5,5 to 50,–,–,–,–,35 to 70,35 to 70

# Other lines, results leading:
DC50 (Cbl-b [1]; [3]) [nM],DC50 (Cbl-b [2]; [4]) [nM],IC50 (Cbl-b [1]; [3]) [nM],Cbl-b Degredation Method B Dmax (%) (Cbl-b [1]),IC50 (Cbl-b [2]; [4]) [nM],Cbl-b Degredation Method A Dmax (%) (Cbl-b [2]; maximum degradation observed),Dmax (Cbl-b [1]) [%],Dmax (Cbl-b [2]; maximum degradation observed) [%],SMILES
> 500,50 to 500,–,–,–,–,–,–,"Cn1cnnc1CC1(c2cccc(N3Cc4c(cc(N5CCN(CC6CCN(c7ccc8c(c7)C(=O)N(C7CCC(=O)NC7=O)C8=O)CC6)CC5)cc4C(F)(F)F)C3=O)c2)COC1 (centres unmarked) [Example 122, 2-(2,6-dioxopiperidin-3-yl)-5-[4-({4-[2-(3-{3-[(4-methyl-4H-1,2,4-triazol-3-yl)methyl]oxetan-3-yl}phenyl)-3-oxo-7-(trifluoromethyl)-2,3-dihydro-1H-isoindol-5-yl]piperazin-1-yl}methyl)piperidin-1-yl]-2,3-dihydro-1H-isoindole-1,3-dione]"
–,–,5 to 50,C (C ≤ 35),50 to 500,B (35 < B < 70),–,–,"Cc1cc(N2CCC(C(C)(C)N3CCC4(CC3)CN(c3cc5c(c(C(F)(F)F)c3)CN(c3cccc([C@]6(Cc7nncn7C)C[C@@H](C#N)C6)c3)C5=O)C4)CC2)c(F)c2c1C(=O)N([C@@H]1CCC(=O)NC1=O)C2 [Example 278, (1r, 3r)-3-(3-{6-[7-(2-{1-[2-(2,6-dioxopiperidin-3-yl)-4-fluoro-7-methyl-1-oxo-2,3-dihydro-1H-isoindol-5-yl]piperidin-4-yl}propan-2-yl)-2,7-diazaspiro[3.5]nonan-2-yl]-1-oxo-4-(trifluoromethyl)-2,3-dihydro-1H-isoindol-2-yl}phenyl)-3-[(4-methyl-4H-1,2,4-triazol-3-yl)methyl]cyclobutane-1-carbonitrile]"
> 500,> 500,–,–,–,–,–,–,"Cn1cnnc1CC1(c2cccc(N3Cc4c(cc(CN5CCC(CN6CC7(CCN(c8ccc9c(c8)C(=O)N(C8CCC(=O)NC8=O)C9=O)CC7)C6)CC5)cc4C(F)(F)F)C3=O)c2)COC1 (centres unmarked) [Example 81, 2-(2,6-dioxopiperidin-3-yl)-5-{2-[(1-{[2-(3-{3-[(4-methyl-4H-1,2,4-triazol-3-yl)methyl]oxetan-3-yl}phenyl)-3-oxo-7-(trifluoromethyl)-2,3-dihydro-1H-isoindol-5-yl]methyl}piperidin-4-yl)methyl]-2,7-diazaspiro[3.5]nonan-7-yl}-2,3-dihydro-1H-isoindole-1,3-dione]"
> 500,50 to 500,–,–,–,–,–,–,"Cn1cnnc1CC1(c2cccc(N3Cc4c(cc(N5CCC6(CC5)CN(CC5CCN(c7ccc8c(c7)C(=O)N(C7CCC(=O)NC7=O)C8=O)CC5)C6)cc4C(F)(F)F)C3=O)c2)COC1 (centres unmarked) [Example 135, 2-(2,6-dioxopiperidin-3-yl)-5-[4-({7-[2-(3-{3-[(4-methyl-4H-1,2,4-triazol-3-yl)methyl]oxetan-3-yl}phenyl)-3-oxo-7-(trifluoromethyl)-2,3-dihydro-1H-isoindol-5-yl]-2,7-diazaspiro[3.5]nonan-2-yl}methyl)piperidin-1-yl]-2,3-dihydro-1H-isoindole-1,3-dione]"
< 5,5 to 50,–,–,–,–,35 to 70,> 70,"COc1c(N2CCC(CN3CCC4(CC3)CN(c3cc5c(c(C(F)(F)F)c3)CN(c3cccc(C6(Cc7nncn7C)COC6)c3)C5=O)C4)CC2)ccc2c1CN(C1CCC(=O)NC1=O)C2=O (centres unmarked) [Example 8, 3-{4-methoxy-5-[4-({2-[2-(3-{3-[(4-methyl-4H-1,2,4-triazol-3-yl)methyl]oxetan-3-yl}phenyl)-3-oxo-7-(trifluoromethyl)-2,3-dihydro-1H-isoindol-5-yl]-2,7-diazaspiro [3.5]nonan-7-yl}methyl)piperidin-1-yl]-1-oxo-2,3-dihydro-1H-isoindol-2-yl}piperidine-2,6-dione]"
